Patent US20250197420A1, “MACROCYCLIC COMPOUNDS, COMPOSITIONS, AND METHODS OF USING THEREOF” (Sionna Therapeutics Inc., priority 2022, published 2025)

How the values were obtained:
[1] = target: T1, Purified recombinant NBD1 (Homo sapiens, UniProt P13569); assay: Aggregation analysis using differential static light scattering (DSLS): thermal stability of NBD1; format: binding; details: NBD1 0.2 mg/ml; Tagg of compound well minus average Tagg of DMSO control wells
T1 construct: Purified recombinant NBD1 was produced using previously described methods; made in house
T1 sequence (P13569 423-646 limits assumed): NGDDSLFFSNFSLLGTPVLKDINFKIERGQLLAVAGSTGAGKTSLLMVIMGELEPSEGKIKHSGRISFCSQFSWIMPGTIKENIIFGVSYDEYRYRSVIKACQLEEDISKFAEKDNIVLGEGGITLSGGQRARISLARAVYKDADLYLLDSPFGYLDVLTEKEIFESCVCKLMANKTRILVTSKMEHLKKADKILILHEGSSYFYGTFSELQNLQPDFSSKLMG
In short: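 ΔTagg is compound-well aggregation temperature minus the DMSO-control mean, each Tagg being the inflection point of light scattering measured by DSLS during a 1 °C/min ramp up to 70 °C. The protein was purified NBD1 (0.2 mg/ml) in pH 7.6 buffer containing 2 mM ATP, 5 mM MgCl2 and 1% glycerol.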

[2] = system: Primary human bronchial epithelial cells from a ΔF508 homozygous CF donor (CF-HBE cells); assay: TECC24 recording of CFTR-mediated transepithelial chloride transport, AUC fold over benchmark VX-809 @10 μM; format: cell-based; details: 48 hours incubation, AUC of forskolin-stimulated IEQ
Procedure: The effects of a test agent on CFTR-mediated transepithelial chloride transport is measured using TECC24 recording analysis. Test agents are solubilized in DMSO. Solubilized test agents are mixed with incubation medium containing DMEM/F12, Ultroser G (0.5%; Crescent Chemical, catalog #67042), Hyclone Fetal Clone II (2%; GE Healthcare, catalog #SH30066.02), bovine brain extract (0.25%; Lonza, catalog #CC-4098), insulin ([…]), IL-13 (10 ng/mL), hydrocortisone (20 nM), transferrin ([…]), triiodothyronine (500 nM), ethanolamine (250 nM), epinephrine (1.5 μM), phosphoethanolamine (250 nM), and retinoic acid (10 nM). Primary human bronchial epithelial cells from a ΔF508 homozygous CF donor (CF-HBE cells; from University of North Carolina Cystic Fibrosis Tissue Procurement Center), grown on Transwell HTS 24-well cell culture inserts (Costar, catalog #3378), are exposed to test agents or controls dissolved in incubation medium. The CF-HBE cells are cultured at 36.5° C. for 48 hours before TECC24 recordings are performed in the presence or absence of test agent, a positive control or vehicle (DMSO).
Following incubation, the transwell cell culture inserts containing the test agent or control-treated CF-HBE cells are loaded onto a TECC24 apparatus (TECC v7 or MTECC v2; EP Design) to record the transepithelial voltage (VT) and resistance (TEER) using 4 AgCl electrodes per well configured in current-clamp mode. The apical and basolateral bath solutions both contain (in mM) 140 NaCl, 5 KCl, 2 CaCl2), 1 MgCl2, 10 Hepes, and 10 glucose (adjusted to pH 7.4 with NaOH). To inhibit basal Na+ absorption, the ENaC inhibitor benzamil (10 μM) is added to the bath. Then, the adenylate cyclase activator, forskolin (10 μM), is added to the bath to activate CFTR. The forskolin-stimulated Cl− transport is halted by addition of CFTR inhibitor-172 (20 μM) to the bath at the end of the experiment to confirm specificity. VT and TEER recordings are digitally acquired at routine intervals using TECC or MTECC software (EP Design). VT and TEER are transformed into equivalent transepithelial Cl− current (IEQ), and the Area Under the Curve (AUC) of the IEQ time course between forskolin and CFTR inhibitor-172 addition is generated using Excel (Microsoft). Efficacy is expressed as the ratio of the test agent AUC divided by vehicle AUC. EC50s based on AUC are generated using the non-linear regression log(agonist) vs. response function in Prism software (Graphpad) with HillSlope fixed=1.
If a test agent increases the AUC of the forskolin-stimulated IEQ relative to VX-809 in CF-HBE cells, and this increase is inhibited by CFTR inhibitor-172, then the test agent is considered a CFTR corrector. TECC assay efficacy is expressed as the ratio of the test agent AUC divided by VX-809 AUC. As set forth in Table 2 below, a TECC value less than 3 is marked “A”; a value between 3 and 6 is marked “B”; a value between 6 and 20 is marked “C”.

Structure (SMILES) | DSLS (ΔTagg) [1] | TECC (test agent AUC divided by VX-809 AUC) [2]
CCOC(=O)Cc1cccc(C2(C)CCCC(C)(C)CN(C)C(=O)CCc3c(c(F)cc4[nH]ccc34)Oc3ccc(F)c(c3)-c3ncc2[nH]3)c1 (single isomer, unassigned) [Compound 64B, ethyl 2-[3-(23,29-difluoro-6,10,10,12-tetramethyl-13-oxo-25-oxa-3,12,20,31-tetrazapentacyclo-[24.3.1.12,5.016,24.017,21]hentriaconta-1(30),2,4,16,18,21,23,26,28-nonaen-6-yl)phenyl]acetate] | A (an ΔTagg value less than or equal to 5 °C is marked “A”) | B (a value between 3 and 6 is marked “B”)
CN1CC(C)(C)CCCC(C)(c2cccc(CC(=O)O)c2)c2cnc([nH]2)-c2cc(ccc2F)Oc2c(F)cc3[nH]ccc3c2CCC1=O (single isomer, unassigned) [Compound 65A, 2-[3-(23,29-difluoro-6,10,10,12-tetramethyl-13-oxo-25-oxa-3,12,20,31-tetrazapentacyclo-[24.3.1.12,5.016,24.017,21]hentriaconta-1(30),2,4,16,18,21,23,26,28-nonaen-6-yl)phenyl]acetic acid] | A (an ΔTagg value less than or equal to 5 °C is marked “A”) | A (a TECC value less than 3 is marked “A”)
CN1CC(C)(C)CCCC(C)(c2cccc(CC(=O)O)c2)c2cnc([nH]2)-c2cc(ccc2F)Oc2c(F)cc3[nH]ccc3c2CCC1=O (single isomer, unassigned) [Compound 65B, 2-[3-(23,29-difluoro-6,10,10,12-tetramethyl-13-oxo-25-oxa-3,12,20,31-tetrazapentacyclo-[24.3.1.12,5.016,24.017,21]hentriaconta-1(30),2,4,16,18,21,23,26,28-nonaen-6-yl)phenyl]acetic acid] | C (a value greater than 10 °C and less than or equal to 25 °C is marked “C”) | A (a TECC value less than 3 is marked “A”)
[2H]C([2H])([2H])C1(c2cccc(CCC(=O)O)c2)CCCC(C)(C)CN(C)C(=O)CCc2c(c(F)cc3[nH]ccc23)Oc2ccc(F)c(c2)-c2ncc1[nH]2 (single isomer, unassigned) [Compound 66A] | A (an ΔTagg value less than or equal to 5 °C is marked “A”) | A (a TECC value less than 3 is marked “A”)
[2H]C([2H])([2H])C1(c2cccc(CCC(=O)O)c2)CCCC(C)(C)CN(C)C(=O)CCc2c(c(F)cc3[nH]ccc23)Oc2ccc(F)c(c2)-c2ncc1[nH]2 (single isomer, unassigned) [Compound 66B] | C (a value greater than 10 °C and less than or equal to 25 °C is marked “C”) | A (a TECC value less than 3 is marked “A”)
CC1(C)CNC(=O)CCc2c(c(F)cc3[nH]ccc23)Oc2ccc(F)c(c2)-c2ncc([nH]2)C(C)(c2cccc(CCC(=O)O)c2)CCOC1 (single isomer, unassigned) [Compound 67A, 3-[3-(24,30-difluoro-6,11,11-trimethyl-14-oxo-9,26-dioxa-3,13,21,32-tetrazapentacyclo[25.3.1.12,5.017,25.018,22]dotriaconta-1(31),2,4,17,19,22,24,27,29-nonaen-6-yl)phenyl]propanoic acid] | C (a value greater than 10 °C and less than or equal to 25 °C is marked “C”) | C (a value between 6 and 20 is marked “C”)
CC1(C)CNC(=O)CCc2c(c(F)cc3[nH]ccc23)Oc2ccc(F)c(c2)-c2ncc([nH]2)C(C)(c2cccc(CCC(=O)O)c2)CCOC1 (single isomer, unassigned) [Compound 67B, 3-[3-(24,30-difluoro-6,11,11-trimethyl-14-oxo-9,26-dioxa-3,13,21,32-tetrazapentacyclo[25.3.1.12,5.017,25.018,22]dotriaconta-1(31),2,4,17,19,22,24,27,29-nonaen-6-yl)phenyl]propanoic acid] | B (a value above 5 °C and less than or equal to 10 °C is marked “B”) | A (a TECC value less than 3 is marked “A”)
CC1(c2cccc(CCC(=O)O)c2)CCCC2(CC2)CNC(=O)CCc2c(c(F)c(F)c3[nH]ccc23)Oc2ccc(F)c(c2)-c2ncc1[nH]2 (single isomer, unassigned) [Compound 69A, 3-[3-(22,23,29-trifluoro-6-methyl-13-oxo-spiro[25-oxa-3,12,20,31-tetrazapentacyclo-[24.3.1.12,5.016,24.017,21]hentriaconta-1(30),2,4,16,18,21,23,26,28-nonaene-10,1′-cyclopropane]-6-yl)phenyl]propanoic acid] | A (an ΔTagg value less than or equal to 5 °C is marked “A”) | B (a value between 3 and 6 is marked “B”)
CC1(c2cccc(CCC(=O)O)c2)CCCC2(CC2)CNC(=O)CCc2c(c(F)c(F)c3[nH]ccc23)Oc2ccc(F)c(c2)-c2ncc1[nH]2 (single isomer, unassigned) [Compound 69B, 3-[3-(22,23,29-trifluoro-6-methyl-13-oxo-spiro[25-oxa-3,12,20,31-tetrazapentacyclo-[24.3.1.12,5.016,24.017,21]hentriaconta-1(30),2,4,16,18,21,23,26,28-nonaene-10,1′-cyclopropane]-6-yl)phenyl]propanoic acid] | A (an ΔTagg value less than or equal to 5 °C is marked “A”) | B (a value between 3 and 6 is marked “B”)
CN1CC(C)(C)CCCC(C)(c2cccc(CCC(=O)O)c2)c2cnc([nH]2)-c2cc(ccc2F)Oc2c(F)cc3[nH]cnc3c2CCC1=O (single isomer, unassigned) [Compound 72A, 3-[3-(23,29-difluoro-6,10,10,12-tetramethyl-13-oxo-25-oxa-3,12,18,20,31-pentazapentacyclo-[24.3.1.12,5.016,24.017,21]hentriaconta-1(30),2,4,16,18,21,23,26,28-nonaen-6-yl)phenyl]propanoic acid] | A (an ΔTagg value less than or equal to 5 °C is marked “A”) | A (a TECC value less than 3 is marked “A”)
CN1CC(C)(C)CCCC(C)(c2cccc(CCC(=O)O)c2)c2cnc([nH]2)-c2cc(ccc2F)Oc2c(F)cc3[nH]cnc3c2CCC1=O (single isomer, unassigned) [Compound 72B, 3-[3-(23,29-difluoro-6,10,10,12-tetramethyl-13-oxo-25-oxa-3,12,18,20,31-pentazapentacyclo-[24.3.1.12,5.016,24.017,21]hentriaconta-1(30),2,4,16,18,21,23,26,28-nonaen-6-yl)phenyl]propanoic acid] | B (a value above 5 °C and less than or equal to 10 °C is marked “B”) | A (a TECC value less than 3 is marked “A”)
CN1CC(C)(C)CCC(C)(c2cccc(CCC(=O)O)c2)c2nc(n(C)n2)-c2cc(ccc2F)Oc2c(F)cc3[nH]ccc3c2CCC1=O (single isomer, unassigned) [Compound 75A, 3-[3-(22,28-difluoro-3,6,9,9,11-pentamethyl-12-oxo-24-oxa-3,4,11,19,30-pentazapentacyclo[23.3.1.12,5.015,23.016,20]triaconta-1(29),2(30),4,15,17,20,22,25,27-nonaen-6-yl)phenyl]propanoic acid] | B (a value above 5 °C and less than or equal to 10 °C is marked “B”) | B (a value between 3 and 6 is marked “B”)
